# Patent US20230026232A1, “AHR INHIBITORS AND USES THEREOF” (Ikena Oncology, Inc., priority 2019, published 2023)
# Test system: CT26.WT
# Assay: CT26.WT syngeneic colorectal cancer model, tumor growth, survival and re-challenge
# Assay type: in vivo, Balb/cJ mice
# Protocol: The effect of single agent Compound A, and Compound A in combination with anti-PD-1 antibody (BioXcell RMP1-14) on TGI and tumor survival was evaluated in the CT26.WT syngeneic model of colorectal cancer. Balb/cJ female mice were inoculated subcutaneously with tumor cells and 4 days after inoculation, Compound A (10 mg/kg or 25 mg/kg) or Vehicle was administered orally QD for a total of 53 doses. Concurrently, anti-PD-1 antibody (10 mg/kg) was administered IP twice a week for a total of 5 doses.
# At ≥95 days after the appearance of CRs in mice treated with the combination of Compound A and anti-PD-1 antibody, the responder animals were re-challenged with CT26.WT cells. Five naïve mice were also injected with CT26.WT cells as a positive control for tumor formation.
smiles,measurement,setting,value
"CC(C)c1cnn2c(N[C@@H]3CCc4[nH]c5ccccc5c4C3)nc(-c3cncc(F)c3)nc12 [Compound A, (R)—N-(2-(5-fluoropyridin-3-yl)-8-isopropylpyrazolo[1,5-a][1,3,5]triazin-4-yl)-2,3,4,9-tetrahydro-1H-carbazol-3-amine]",TGI relative to vehicle treated mice,Compound A 10 mg/kg PO QD (alone or with anti-PD-1 10 mg/kg IP twice a week),39.8%
same,TGI relative to vehicle treated mice,Compound A 25 mg/kg PO QD (alone or with anti-PD-1 10 mg/kg IP twice a week),40.9%
